Results as given in patent US5693488A, “Transmembrane tyrosine phosphatase, nucleic acids encoding the same, and methods of use thereof” (The Rockefeller University, priority 1994, dated 1997).

Key:
ChPTPλ = assay: PTP assay of ChPTPλ immunoprecipitated with A299 from DT40 cells (release of 32Pi from tyrosine-phosphorylated substrate); type: biochemical, chicken; settings: for ChPTPλ (% activity): buffer 20 mM Hepes (pH 7.4); for effect on ChPTPλ activity (in words) / effect on ChPTPλ activity: concentration not given (Table 1); for requirement for higher ChPTPλ activity in vitro (in words): chelator
Protocol: For immunoblot (Western) analysis, cells were lysed in 1% SDS containing protease inhibitor mix (1 mM phenylmethylsulfonyl fluoride/2 μg aprotinin per ml/1 μg pepstatin per ml) (Boehringer). […] For immunoprecipitation, cells were solubilized in 1% NP-40/PBS/protease inhibitor mix, then ChPTPλ was immunoprecipitated with pA299 (25).
(§1) Raytide (Oncogene Science) and bovine brain myelin basic protein (Sigma) (20 μg each) were phosphorylated on tyrosines by v-Src (34 pg), purified from a baculovirus expression system (35a), in 50 μl containing 20 mM Tris-HCl, pH 7.2/5 mM MnCl2 /50 μCi [γ-^32 P]ATP at 30° C. for 3 h. Casein and histone 2B (Sigma) were phosphorylated on serines and threonines by the catalytic subunit of calf heart cAMP-dependent protein kinase (1 U, Sigma) in 50 μl including 25 mM Hepes, pH 7.4/10 mM MgCl2 /10 mM DTT/50 μCi [γ-^32 P]ATP. All reactions were terminated by TCA-precipitationand resuspended in Tris-HCl (pH 8.0) as previously described (5).
(§2) […] When bacterial extract was used, assay was done in 50 μl of PTP buffer. After incubating at 30° C. for 30 min, the reactions were stopped, and the released ^32 Pi was measured as previously described (5).

[1] = target: T1, pKPTPλ, truncated ChPTPλ containing the intracellular domain (Gallus gallus, UniProt Q91976); assay: PTP assay of bacterial extract expressing pKPTPλ; type: biochemical, chicken
T1 construct: HindIII/EcoRI fragment in pKKUC12, E. coli DHB4 extract
T1 sequence (Q91976 541-1237): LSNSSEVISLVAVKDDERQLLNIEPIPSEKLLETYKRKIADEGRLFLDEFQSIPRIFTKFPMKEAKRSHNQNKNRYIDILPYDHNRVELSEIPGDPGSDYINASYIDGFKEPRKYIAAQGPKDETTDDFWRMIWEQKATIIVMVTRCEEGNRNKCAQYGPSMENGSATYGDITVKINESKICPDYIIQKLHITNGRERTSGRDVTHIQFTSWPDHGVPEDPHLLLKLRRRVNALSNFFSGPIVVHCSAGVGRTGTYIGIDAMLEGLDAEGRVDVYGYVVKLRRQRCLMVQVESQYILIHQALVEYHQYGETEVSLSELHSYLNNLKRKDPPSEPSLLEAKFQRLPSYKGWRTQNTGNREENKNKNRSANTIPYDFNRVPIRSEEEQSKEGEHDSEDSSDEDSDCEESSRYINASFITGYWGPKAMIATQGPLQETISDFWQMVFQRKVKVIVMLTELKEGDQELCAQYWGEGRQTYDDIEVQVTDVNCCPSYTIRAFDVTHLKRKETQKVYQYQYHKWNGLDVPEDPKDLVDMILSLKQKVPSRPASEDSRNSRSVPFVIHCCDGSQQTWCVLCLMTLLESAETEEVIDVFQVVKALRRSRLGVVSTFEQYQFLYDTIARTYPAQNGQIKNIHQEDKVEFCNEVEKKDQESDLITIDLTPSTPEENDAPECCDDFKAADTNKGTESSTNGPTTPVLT
Protocol: A 2 kb-cDNA fragment encoding the entire intracellular domain of ChPTPλ was excised by HindIII and EcoRI (starting from leucine 520, FIG. 2A-2C) and ligated to the expression vector pKKUC12. The recombinant,pkPTPλ, was transformed into E. coli DHB4 that lacks alkaline phosphatase (35). After induction by 0.4 mM IPTG for 2 h, bacterial extracts were prepared (5) and 5 μl samples were used for PTP assays. The extract of DHB4 containing the vector only was used as a negative control.
as §1, §2

[2] = 10 mM, buffer 20 mM Hepes (pH 7.4), 10 mM DTT, 5 mM EDTA

Compound: [Ca+2].[Cl-].[Cl-] [CaCl2]
- ChPTPλ (% activity) (ChPTPλ; 10 mM, 10 mM DTT, 5 mM EDTA): 100%
- effect on ChPTPλ activity (in words) (ChPTPλ): no effect at all
- pKPTPλ (% activity) [1, 2]: 90%

Compound: O[C@@H](CS)[C@@H](O)CS [DTT]
- ChPTPλ (% activity) (ChPTPλ; 10 nM): 65%
- ChPTPλ (% activity) (ChPTPλ; 1 mM): 39%
- requirement for ChPTPλ activity (in words) (ChPTPλ; 10 mM, reducing reagent): required for ChPTPλ activity
- pKPTPλ (% activity) ([1]; 10 nM, buffer 20 mM Hepes (pH 7.4)): 80%

Compound: O=C(O)CN(CCN(CC(=O)O)CC(=O)O)CC(=O)O [EDTA]
- ChPTPλ (% activity) (ChPTPλ; 5 nM, 10 mM DTT): 100%
- requirement for higher ChPTPλ activity in vitro (in words) (ChPTPλ): needed for ChPTPλ to reach a higher activity
- activity at 0.005 µM ([1]; pH 7.4, read-out: pKPTPλ (% activity)): 100%

Compound: O=C(O)CN(CCOCCOCCN(CC(=O)O)CC(=O)O)CC(=O)O [EGTA]
- ChPTPλ (% activity) (ChPTPλ; 5 mM, 10 mM DTT): 100%
- requirement for higher ChPTPλ activity in vitro (in words) (ChPTPλ): needed for ChPTPλ to reach a higher activity
- activity at 5000 µM ([1]; 5 mM, buffer 20 mM Hepes (pH 7.4), 10 mM DTT): 100%

Compound: O=C(O)CI [Iodoacetate]
- inhibition of ChPTPλ (ChPTPλ; 1 mM): > 70%
- ChPTPλ (% activity) (ChPTPλ; 1 mM, 10 mM DTT, 5 mM EDTA): 29%

Compound: [Cl-].[Cl-].[Mg+2] [MgCl2]
- ChPTPλ (% activity) (ChPTPλ; 10 mM, 10 mM DTT, 5 mM EDTA): 80%
- effect on ChPTPλ activity (ChPTPλ): < 30%
- pKPTPλ (% activity) [1, 2]: 80%

Compound: [Cl][Mn][Cl] [MnCl2]
- ChPTPλ (% activity) (ChPTPλ; 10 mM, 10 mM DTT, 5 mM EDTA): 87%
- effect on ChPTPλ activity (ChPTPλ): < 30%
- pKPTPλ (% activity) [1, 2]: 51%
- inhibitory influence on pKPTPλ activity ([1]; same assaying conditions (Table 1)): 49%

Compound: [Na+].[Na+].[O]=[Mo](=[O])([O-])[O-] [Na2 MoO4]
- inhibition of ChPTPλ (ChPTPλ; 0.1 mM): > 70%
- ChPTPλ (% activity) (ChPTPλ; 0.1 mM, 10 mM DTT, 5 mM EDTA): 24%
- pKPTPλ (% activity) ([1]; 0.1 mM, buffer 20 mM Hepes (pH 7.4), 10 mM DTT, 5 mM EDTA): 11%

Compound: [Na+].[Na+].[Na+].[O]=[V]([O-])([O-])[O-] [Na3 VO4]
- ChPTPλ (% activity) (ChPTPλ; 0.1 mM, 10 mM DTT, 5 mM EDTA): 78%
- inhibition of ChPTPλ (ChPTPλ; 1 mM): > 70%
- ChPTPλ (% activity) (ChPTPλ; 1 mM, 10 mM DTT, 5 mM EDTA): 4%
- pKPTPλ (% activity) ([1]; 1 mM, buffer 20 mM Hepes (pH 7.4), 10 mM DTT, 5 mM EDTA): 2%

Compound: [Cl-].[Na+] [NaCl]
- ChPTPλ (% activity) (ChPTPλ; 200 mM, 10 mM DTT, 5 mM EDTA): 100%
- effect on ChPTPλ activity (in words) (ChPTPλ): no effect at all

Compound: [Cl-].[Cl-].[Zn+2] [ZnCl2]
- inhibition of ChPTPλ (ChPTPλ; 10 mM): > 70%
- ChPTPλ (% activity) (ChPTPλ; 10 mM, 10 mM DTT, 5 mM EDTA): 12%
- pKPTPλ (% activity) [1, 2]: 1%

Compound: NaPO4
- ChPTPλ (% activity) (ChPTPλ; 10 mM, 10 mM DTT, 5 mM EDTA): 70%
- effect on ChPTPλ activity (ChPTPλ): < 30%
- pKPTPλ (% activity) [1, 2]: 95%
